Counter-ions that a name gives are not always drawn.
Legend:
hind-leg blood flow = assay: Action on hind-leg blood flow in anesthetized dogs; type: in vivo, Hybrid adult dogs; conditions: 100 μg into femoral artery; for change in vivo at 0.1 mg: Canis lupus familiaris, read-out: Rate of blood flow increase (%)
Method: <Action on hind-leg blood flow in anesthetized dogs>
Hybrid adult dogs were anesthetized by intravenous injection of 30 mg/kg of sodium pentobarbital. After administration of heparin, an extracorporeal circulation circuit was formed in femoral artery. The blood flows at hind-legs were measured by fixing an electromagnetic blood flow meter probe in the circuit. The test compound at a dose of 100 μg was administered into femoral artery via a tube provided in the circuit. The results in Table 3 show the rate of blood flow increase.

atrium specimen = assay: Inotropic action in atrium specimen and anti-chronotropic action in guinea pigs; conditions: Cavia porcellus; guinea pig atrium; 10^-5 M; "light atrium", left atrium stimulated at 1 Hz; read-out: Rate contraction increase (%)
Method: <Inoropic action in atrium specimen and anti-chronotropic action in guinea pigs>
After bruising on the head, guinea pigs were dehematized by sectioning carotid arteries and their heart was enucleated. Right and left atriums were taken out. These atriums were suspended in Krebs-Henseleit solution wherein 95% O2-5 % CO2 was bubbled. The tension was measured by a strain gauge and recorded via an amplifier. Pulsation at the right atrium was counted via a tachometer to determine the heart rate. Electric stimulation, twice a magnitude of the ceiling value at 1 Hz, 5 msec, was given to the left atrium. The test compound was administered at an interval of 5 minutes.
The results, shown in Table 2, indicate the rate of contraction increase of the light atrium at a dose of 10^-5 M of the test compound.

ventricular fibrillation = assay: Antiarrhythmic action against chloroform in mice (suppression of ventricular fibrillation); type: in vivo; conditions: Mus musculus, 20 min, 20 minutes before chloroform, read-out: Rate of suppression (%) of ventricular fibrillation
Method: <Antiarrhythmic action against chloroform in mice>
A test compound was administered to mice at a dose of 100 mg/kg. After 20 minutes, mice were placed in a pot filled with chloroform. Mice were taken out immediately after respiratory arrest. Electrocardiogram was recorded at the 11th induction, and ventricular tachycardia, ventricular fibrillation, and the time until cardiac arrest were measured.

Row | Compound | change in vivo at 0.1 mg (hind-leg blood flow) [%] | activation at 10 µM (atrium specimen) [%] | inhibition in vivo at 100 mg/kg (ventricular fibrillation) [%] | further results
1 | Cc1cc2c(c3c1NC(=O)C3(C)C)O[C@@H](CN)[C@@H]2C (relative stereo) [Example 3 (5) (Former component), (2R*,3R*)-2-aminomethyl-2,3,7,8-tetrahydro-3,5,8,8-tetramethyl-6H-furo 2,3-e!indol-7-one.cndot.hydrochloride] | 128 |  |  | 
2 | CC[C@H]1c2cc(C)c3c(c2O[C@H]1CN)C(C)(C)C(=O)N3 (relative stereo) [Example 7 (6)(b), (2R* ,3S*)-2-aminomethyl-3-ethyl-2,3,7,8-tetrahydro-5,8,8-trimethyl-6H-furo 2,3-e!indol-7-one.cndot.hydrochloride] |  | 27 |  | 
3 | Cc1cc2c(c3c1NC(=S)C3(C)C)O[C@@H](CN)[C@@H]2C (relative stereo) [Example 35, (2R*,3R*)-2-aminomethyl-2,3,7,8-tetrahydro-3,5,8,8-tetramethyl-6H-furo 2,3-e!indol-7-thione.cndot.hydrochloride] |  |  | 100 | 
4 | Cc1cc2c(c3c1NC(=O)C3(C)C)O[C@@](C)(CN)[C@@H]2C (relative stereo) [Example 55 (B isomer), (2R*,3R*)-2-aminomethyl-2,3,5,8,8-pentamethyl-2,3,7,8-tetrahydro-6H-furo 2 ,3-e!indol-7one.cndot.hydrochloride] | 55 | 24 |  | inhibition in vivo at 30 mg/kg (ventricular fibrillation; Dose: 30 mg/kg): 100%
5 | Cc1cc2c(c3c1NC(=O)C3(C)C)OC(CN)C2 (centres unmarked) [Example 1 (9), 2-Aminomethyl-2,3,7,8-tetrahydro-5,8,8-trimethyl-6H-furo 2,3-e!indol-7-onehydrochloride] |  | 13 |  | 
6 | Cc1cc2c(c3c1NC(=O)C3(C)C)OC(CN)C2.Cl (centres unmarked) [Example 1 (a), 2-Aminomethyl-2,3,7,8-tetrahydro-5,8,8-trimethyl-6H-furo 2,3-e!indol-7-onehydrochloride] |  |  |  | Rate of blood flow increase (%) (hind-leg blood flow): 192%
7 | Cc1cc2c(c3c1NC(=O)C3(C)C)OC(C)(CN)C2 (centres unmarked) [Example 2 (8), 2-Aminomethyl-2,3,7,8-tetrahydro-2,5,8,8-tetramethyl-6H-furo 2,3-e!indol-7-one.cndot.hydrochloride] |  | 23 |  | 
8 | Cc1cc2c(c3c1NC(=O)C3(C)C)OCC2CN (centres unmarked) [Example 13 (3), 3-Aminomethyl-2,3,7,8-tetrahydro-5,8,8-trimethyl-6H-furo 2,3-e!indol-7-one.cndot.hydrochloride] | 55 |  |  | 
9 | CNCC1Cc2cc(C)c3c(c2O1)C(C)(C)C(=O)N3 (centres unmarked) [Example 14, 2-Methylaminomethyl-2,3,7,8-tetrahydro-5,8,8-trimethyl-6H-furo 2,3-e!indol-7-one.cndot.hydrochloride] |  | 20 |  | 
10 | Cc1cc2c(c3c1NC(=O)C3(C)C)OC(CNCc1ccccc1)C2 (centres unmarked) [Example 15, 2-Benzylaminomethyl-2,3,7,8-tetrahydro-5,8,8-trimethyl-6H-furo 2,3-e!indol-7-one.cndot.hydrochloride] |  |  | 100 | 
11 | Cc1cc2c(c3c1NC(=O)C3(C)C)OC(Cn1ccnc1)C2 (centres unmarked) [Example 16, 2-(1-Imidazolyl)methyl-2,3,7,8-tetrahydro-5,8,8-trimethyl-6H-furo 2,3-e!indol-7-one.cndot.hydrochloride] | 90 |  | 90 | 
12 | Cc1cc2c(c3c1NC(=O)C3(C)C)OC(CN(C)C)C2 (centres unmarked) [Example 17, 2-Dimethylaminomethyl-2,3,7,8-tetrahydro-5,8,8-trimethyl-6H-furo 2,3-e!indol-7-one.cndot.hydrochloride] |  |  | 100 | 
13 | CCCCNCC1Cc2cc(C)c3c(c2O1)C(C)(C)C(=O)N3 (centres unmarked) [Example 18, 2-n-Butylaminomethyl-2,3,7,8-tetrahydro-5,8,8-trimethyl-6H-furo 2,3-e!indol-7-one.cndot.hydrochloride] | 145 |  |  | 
14 | Cc1cc2c(c3c1NC(=O)C3(C)C)OC(CN1CCCCC1)C2 (centres unmarked) [Example 19, 2-(1-Piperidinyl)methyl-2,3,7,8-tetrahydro-5,8,8-trimethyl-6H-furo 2,3-e!in dol-7-one.cndot.hydrochloride] |  | 28 |  | 
15 | Cc1cc2c(c3c1NC(=O)C3(C)C)OC(CN1CCN(Cc3ccccc3)CC1)C2 (centres unmarked) [Example 20, 2-(4-Benzyl-1-piperadinyl)methyl-2,3,7,8-tetrahydro-5,8,8-trimethyl-6H-furo 2,3-e!indol-7-one.cndot.dihydrochloride] | 96 |  |  | 
16 | Cc1cc2c(c3c1NC(=O)C3(C)C)OC(CN1CCNCC1)C2 (centres unmarked) [Example 22, 2-(1-Piperadinyl)methyl-2,3,7,8-tetrahydro-5,8,8-trimethyl-6H-furo 2,3-e!in dol-7-one.cndot.dihydrochloride] | 121 |  |  | 
17 | COc1ccc(C(=O)N2CCN(CC3Cc4cc(C)c5c(c4O3)C(C)(C)C(=O)N5)CC2)cc1OC (centres unmarked) [Example 23, 2-4-(3,4-dimethoxybenzoyl)-1-piperadinyl!methyl-2,3,7,8-tetrahydro-5,8,8-trimethyl-6H-furo 2,3-e!indol-7-one.cndot.hydrochloride] | 81 |  |  | 
18 | CCCCCCc1cc2c(c3c1NC(=O)C3(C)C)OC(CN)C2 (centres unmarked) [Example 25 (9), 2-Aminomethyl-8,8-dimethyl-5-n-hexyl-2,3,7,8-tetrahydro-6H-furo 2,3-e!indol-7-one.cndot.hydrochloride] |  | 46 | 100 | 
19 | CCc1cc2c(c3c1NC(=O)C3(C)C)OC(CN)C2 (centres unmarked) [Example 26 (6), 2-Aminomethyl-8,8-dimethyl-5-ethyl-2,3,7,8-tetrahydro-6H-furo 2,3-e!indol-7-one.cndot.hydrochloride] | 216 |  |  | 
20 | CCCCc1cc2c(c3c1NC(=O)C3(C)C)OC(CN)C2 (centres unmarked) [Example 28 (9)HCl, 2Aminomethyl-5-n-butyl-8,8-dimethyl-2,3,7,8-tetrahydro-6H-furo 2,3-e!indol-7-one.cndot.hydrochloride] |  |  | 90 | 
21 | Cc1c(C)c2c(c3c1CC(CN)O3)C(C)(C)C(=O)N2 (centres unmarked) [Example 30 (8)HCl, 2-Aminomethyl-2,3,7,8-tetrahydro-4,5,8,8-tetramethyl-6H-furo 2,3-e!indol-7-one.cndot.hydrochloride] |  | 28 |  | 
22 | CCOC(=O)c1cc2c3c(ccc2[nH]1)CC(CN)O3 (centres unmarked) [Example 47 (5), 2-Aminomethyl-2,3-dihydro-7-ethoxycarbonyl-6H-furo 2,3-e!indole.cndot.hydrochloride] |  |  | 90 | 

From patent US5510366A, “Indole derivatives, salts thereof, and congestive heart failure therapeutic agents comprising the same” (Kowa Co., Ltd., priority 1993, dated 1996)
